For one assay, the target named is Human ACLY (Homo sapiens (Human), UniProt P53396). Briefly: ACLY enzyme activity test (ADP-Glo luminescence). The assay is classed as biochemical. Conditions: 37° C., 30 minutes. The source says: • Instrument: Envision (PerkinElmer, USA) • Materials: Acl—human ACLY/acly/ATP citrate lyase protein (His tag) was purchased from Sino Biological; kinase assay kit ADP-GLO (promega #V9102).
Experimental principle: In this experiment, the ATP-dependent citrate lyase ACL catalyzes the conversion of citrate to acetyl coenzyme A, which in turn produces malonyl coenzyme A, a precursor molecule for fatty acid synthesis, and this reaction is accompanied by ATP depletion, so the change in ATP can be detected using the ADP-Glo Kinase Assay (#V9102) to indirectly reflect the inhibitory effect of the compound on the enzymatic activity of ACL. This kinase detection kit can quantitatively determine the amount of ADP catalyzed by ACLY enzyme activity. (First, the compound, the enzyme and the substrate are incubated at 37 degrees for half an hour, ADP-Glo& #V9102; reagent is added and incubated for half an hour to terminate the reaction and consume the remaining ATP; then the kinase detection reagent is added (which converts the ADP to ATP while also detecting the newly synthesized ATP using the coupled […] reaction) and incubated for half an hour. The value is read by using Envision.
Experimental method: ADP Glo luminescence method was used for determination. It reflects the activity of ACLY enzyme by quantitatively detecting the amount of ADP, and the enzymatic reaction catalyzed by ACLY is proportional to the amount of ADP detected by the luminescent signal. Firstly, the compound is diluted with 10% DMSO, and then […] of compound dilution is added to a 5 μl reaction system, so that the final reaction system has a DMSO content of 2%. The enzymatic reaction catalyzed by ACLY was carried out at 37° C. for 30 minutes. 5 μl reaction mixture contained the following components: 40 mM Tris, pH 8.0, 10 mM MgCl2, 5 mM DTT, ATP, CoA, sodium citrate, and ACLY. After the enzymatic reaction was complete, 2.5 μl of ADP Glo reagent was added to each reaction system and incubated at room temperature for 1 hour. Afterwards, 5 μl of kinase detection reagent was added and incubated at room temperature for 30 minutes. The luminous signal was detected using Envision (PerkinElmer, USA).
Data processing: For compound, the activity dose dependent relationship was tested. IC50 value was obtained by non-linear fitting of sample concentration based on sample activity. The software used for calculation was Graphpad Prism 7, and the model used for fitting was sigmoid dose response (variable slope). For most inhibitor screening models, the bottom and top of the fitting curve were set to 0 and 100. In general, each sample is set with multiple wells (n≥2) during testing, which are represented in the results as Standard Deviation (SD) or Standard Error (SE).
A general note: ADP-Glo first removes unused ATP, then detects ADP through luciferase.

Another assay has as its system breast cancer cell MCF-7. Briefly: MTS cell proliferation assay, MCF-7. Conditions: Homo sapiens, MCF7; MCF-7, MTS; read-out: IC50, inhibition of proliferation, MCF-7. The assay is classed as cell-based. The source says: (§1) Experimental principle: CellTier 96 ® AQueous One Solution Cell Proliferation Assay (MTS) colorimetric method was used to detect cell proliferation. This analysis method is based on the tetrazole compound (3-(4,5-dimethylthiazol-2-yl)-5-(3-carboxymethoxyphenyl)-2-(4-sulfophenyl)-2H-tetrazolium, internal salt; MTS). The conversion of yellow MTS to blue purple water-soluble formazan is catalyzed by dehydrogenase, which exists in living cells with metabolic activity; Dead cells cannot complete the transformation from MTS to formamide. The amount of formazan determined by absorbance at 490 nm is directly proportional to the number of live cells in culture.
(§2) Sample processing: Dissolve the sample in DMSO and store it at low temperature.
(§3) Cell survival rate was detected by using MTS method, that is, adherent cells growing in logarithmic phase were digested with 0.025% trypsin, and counted; 80 μl cells were inoculated into a 96 well plate at a density of 3000 cells/well for A549 and 5000 cells/well for H358 (all cultured under 1% FBS conditions), and grown overnight in a 5% CO2 and 37° C. incubator. Each compound was diluted with a three-fold concentration gradient, eight concentrations were tested, and three wells were set for each concentration. 20 μl of the diluted compounds was added to the corresponding cell wells. Adherent cells A549 and H358 were cultured in a 5% CO2 and 37° C. incubator for 72 hours; 20 μl of MTS was added separately and incubated for 2 hours in a 5% CO2 and 37° C. incubator. Molecular Device VersaMax was used to test the light absorption value at 490 nm (L1), with a reference wavelength of 690 nm (L2). The (L1−L2) values were plotted against different concentrations of inhibitors and IC50 was obtained by fitting the formula.
(§4) The experimental results were fitted to the IC50 using Graphpad Prism 7. The model used for fitting was log(inhibitor) vs Response—variable slop, and the results of each assay were equipped with triple replicate wells to ensure the accuracy of the experiment. The results were expressed as Standard Deviation (SD) or Standard Error (SE).
(§5) Similarly, the antiproliferative assays of the compounds on pancreatic cancer cell line ASPC-1, human pancreatic cancer cell MIA-PACA and breast cancer cell MCF-7 were performed as above.
For orientation: Tetrazolium dyes change colour on reduction, which living cells bring about.

The test system of assay [1] is pancreatic cancer cell line ASPC-1. Briefly: MTS cell proliferation assay, ASPC-1. The assay is classed as cell-based. Conditions: Homo sapiens, ASPC1; ASPC-1, MTS; read-out: IC50, inhibition of proliferation, ASPC-1.
Description: as §1, §2, §3, §4, §5

The test system of a further assay is A549 cells. Briefly: MTS cell proliferation assay, A549. Conditions: Homo sapiens, A549, 72 hours, 1% FBS, read-out: IC50, inhibition of proliferation, A549. The format is cell-based. The source says:
(§6) Experimental materials: NCI-H358 cells (H358, human non-small cell lung cancer cells) were purchased from the cell bank/stem cell bank of the Chinese Academy of Sciences; RPMI-1640 culture medium (GIBCO, product number 3180002), and human tumor cell non-small cell lung cancer cell A549 were gifted by the research group of researcher Li Jia from SHANGHAI INSTITUTE OF MATERIA MEDICA, CHINESE ACADEMY OF SCIENCES. CellTier 96® The Aquarius One Solution Cell Promotion Assay (MTS) was purchased from Promega #G3581.
Experimental principle: CellTier 96 ® AQueous One Solution Cell Proliferation Assay (MTS) colorimetric method was used to detect cell proliferation. […] The amount of formazan determined by absorbance at 490 nm is directly proportional to the number of live cells in culture. […]
Cell survival rate was detected by using MTS method, that is, adherent cells growing in logarithmic phase were digested with 0.025% trypsin, and counted; 80 μl cells were inoculated into a 96 well plate at a density of 3000 cells/well for A549 and 5000 cells/well for H358 (all cultured under 1% FBS conditions), and grown overnight in a 5% CO2 and 37° C. incubator. […]
The experimental results were fitted to the IC50 using Graphpad Prism 7. […] The results were expressed as Standard Deviation (SD) or Standard Error (SE).

In another assay the test system is NCI-H358 cells. Briefly: MTS cell proliferation assay, H358. The assay is classed as cell-based, human. Conditions: Homo sapiens, NCI-H358, H358, 72 hours, 1% FBS, read-out: IC50, inhibition of proliferation, H358.
Description: as §6, §1, §2, §3, §4

Assay [2] deals with human pancreatic cancer cell MIA-PACA. Briefly: MTS cell proliferation assay, MIA-PACA. The format is cell-based. Particulars: Homo sapiens, MIA PaCa-2, read-out: IC50, inhibition of proliferation, MIA-PACA.
Description: as §1, §2, §3, §4, §5

Our source for the IC50 values is patent publication US20250011272A1, “LONG-CHAIN COMPOUND THAT ACTS ON ACLY, PREPARATION METHOD THEREFOR AND USE THEREOF” (SHANGHAIINSTITUTE OF MATERIA MEDICA, CHINESE ACADEMY OF …, priority 2021, published 2025).

Sequence of Human ACLY (P53396 whole entry): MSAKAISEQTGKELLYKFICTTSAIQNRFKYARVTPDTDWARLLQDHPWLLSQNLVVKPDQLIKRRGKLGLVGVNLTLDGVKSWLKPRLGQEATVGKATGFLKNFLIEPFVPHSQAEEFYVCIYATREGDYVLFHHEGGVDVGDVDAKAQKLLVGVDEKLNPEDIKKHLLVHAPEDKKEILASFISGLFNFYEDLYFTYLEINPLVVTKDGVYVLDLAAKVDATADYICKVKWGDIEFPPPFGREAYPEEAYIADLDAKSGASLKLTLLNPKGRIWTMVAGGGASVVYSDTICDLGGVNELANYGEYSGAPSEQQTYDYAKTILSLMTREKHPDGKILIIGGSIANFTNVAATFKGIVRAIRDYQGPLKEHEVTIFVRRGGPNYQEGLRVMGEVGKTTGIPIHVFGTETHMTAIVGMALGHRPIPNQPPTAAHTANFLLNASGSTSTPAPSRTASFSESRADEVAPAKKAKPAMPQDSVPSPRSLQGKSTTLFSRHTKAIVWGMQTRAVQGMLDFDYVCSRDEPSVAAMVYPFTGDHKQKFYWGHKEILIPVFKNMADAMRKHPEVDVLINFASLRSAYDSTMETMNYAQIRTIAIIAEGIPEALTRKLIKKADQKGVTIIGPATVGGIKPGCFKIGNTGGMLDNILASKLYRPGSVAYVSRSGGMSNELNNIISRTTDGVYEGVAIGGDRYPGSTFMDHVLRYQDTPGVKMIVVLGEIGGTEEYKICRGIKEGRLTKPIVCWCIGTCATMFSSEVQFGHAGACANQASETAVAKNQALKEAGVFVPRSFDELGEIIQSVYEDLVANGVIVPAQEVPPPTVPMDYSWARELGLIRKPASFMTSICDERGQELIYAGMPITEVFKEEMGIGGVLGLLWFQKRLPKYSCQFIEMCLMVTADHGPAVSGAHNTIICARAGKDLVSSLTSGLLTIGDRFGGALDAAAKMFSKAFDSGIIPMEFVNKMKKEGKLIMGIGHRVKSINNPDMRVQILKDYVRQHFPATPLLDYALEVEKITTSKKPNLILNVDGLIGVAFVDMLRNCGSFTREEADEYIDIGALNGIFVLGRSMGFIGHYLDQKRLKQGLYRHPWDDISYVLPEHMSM

On Human ACLY, `O=C(O)C1(CCCCCC/C=C\CCCCCCC2(C(=O)OCCc3ccccc3Cl)C=CCC2)C=CCC1` (stereo not drawn) [Compound M31] registered an IC50 of 8.5 ± 3.2 µM. On Human ACLY, `CCOC(=O)C1(CCCCCC/C=C\CCCCCCC2(C(=O)O)C=CCC2)C=CCC1` (stereo not drawn) [Compound M20] showed an IC50 of 3.5 ± 1.7 µM. Compound `O=C(O)C1(CCCCCC/C=C\CCCCCCC2(C(=O)OCCc3ccccc3)C=CCC2)C=CCC1` (stereo not drawn) [Compound M27] gave an IC50 at Human ACLY of 7.7 ± 0.39 µM. On the same count and under the same terms, in the case of `O=C(O)C1(CCCCCC/C=C\CCCCCCCC2(C(=O)O)C=CCC2)C=CCC1` (stereo not drawn) [Compound M13] it was 2.7 ± 0.8 µM.

With `O=C(O)C1(CCCCCCC(=C(CCCCCCC2(C(=O)O)C=CCC2)c2ccccc2)c2ccccc2)C=CCC1` (stereo not drawn) [Compound M35], on Human ACLY, the IC50 was 0.9 ± 0.1 µM.

At Human ACLY, `C=CC(C)(CCCCCC/C=C\CCCCCCCC(C)(C=C)C(=O)O)C(=O)O` (stereo not drawn) [Compound M10] came in with an IC50 of 1.9 ± 0.2 µM. On the same count and under the same terms, in the case of `O=C(O)C1(CCCCCC/C=C\CCCCCCC2(C(=O)OCc3ccc(Cl)cc3Cl)C=CCC2)C=CCC1` (stereo not drawn) [Compound M24] it was 5.5 ± 1.9 µM; in that of `O=C(O)C1(CCCCCC/C=C\CCCCCCC2(C(=O)OCCc3ccc(Cl)cc3)C=CCC2)C=CCC1` (stereo not drawn) [Compound M30], 19.9 ± 7.8 µM. Still for that read-out and setting: in the case of `CC(CCCC/C=C/CCCCCC(C)(C(=O)O)c1ccccc1)(C(=O)O)c1ccccc1` (stereo not drawn) [Compound M15] it was 52.2 ± 0.27 µM; in that of `CC(C)(CCCCCCC=C(CCCCCCC(C)(C)C(=O)O)c1ccc(C(=O)N2CCN(c3ccccn3)CC2)cc1)C(=O)O` [Compound M36], 4.57 ± 0.41 µM. With `O=C(O)C1(CCCCCC/C=C\CCCCCCC2(C(=O)O)C=CCC2)C=CCC1` (stereo not drawn) [Compound M5], the IC50 in the assay on breast cancer cell MCF-7 came out at 31.8 ± 1.7 µM; in assay [1] it was 27.3 ± 0.8 µM; in the assay on A549 cells, 12.5 ± 1.2 µM; on Human ACLY, 1.5 ± 0.45 µM; in the assay on NCI-H358 cells, 23.6 ± 1.9 µM; in assay [2] it was 13.5 ± 18 µM. The compound `COC(=O)C1(CCCCCC/C=C\CCCCCCC2(C(=O)O)C=CCC2)C=CCC1` (stereo not drawn) [Compound M21] gave an IC50 against Human ACLY of 3.8 ± 0.83 µM. On to `CC[C@H](C)n1cc(C)c2c(C(=O)NCc3c(C)cc(C)[nH]c3=O)cc(-c3ccc(N4CCN(C(=O)CCCSC(=O)C(C)(C)CCCCC/C=C\CCCCCC(C)(C)C(=O)O)CC4)nc3)cc21` [Compound M33], for which the IC50 against Human ACLY was 3.3 ± 0.45 µM. Take `CC(CCCCCC/C=C\CCCCCCCC(C)(C(=O)O)c1ccccc1)(C(=O)O)c1ccccc1` (stereo not drawn) [Compound M11]: on Human ACLY, the IC50 is 1.9 ± 0.31 µM.

The compound `CC(C)(CCCCCC/C=C(/CCCCCCC(C)(C)C(=O)O)c1ccc(C(=O)N2CCN(c3ccccn3)CC2)cc1)C(=O)O` [Compound M37] showed an IC50 at Human ACLY of 5.21 ± 0.27 µM. Same read-out and setting: in the case of `O=C(O)C1(CCCCCC/C=C\CCCCCCC2(C(=O)O)CC=CC2)CC=CC1` [Compound M2] it was 2.9 ± 0.95 µM.
